Reference: PubChem BioAssay (NCI)
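Step 1: Grow cells in 96-well plates. Step 2: Expose to compound for 48 hours at 5 concentrations. Step 3: Interpolate endpoints linearly; if unreached, use highest concentration. GI50: concentration for 50% inhibition of growth. TGI: concentration producing complete growth inhibition.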

Columns and labels:
Assay in all cases: DTP human tumour cell line panel, 48 h; in the data active = GI50 below about 0.43 µM; inactive = the rest
[1] = test system: SK-MEL-28 melanoma
[2] = test system: LXFL 529 NSCLC
[3] = test system: UACC-257 melanoma
[4] = test system: 786-0 renal
[5] = test system: SK-MEL-5 melanoma
[6] = test system: K-562 leukemia
[7] = test system: NCI-H23 lung
[8] = test system: OVCAR-3 ovarian
[9] = test system: M19-MEL melanoma
[10] = test system: U251 CNS
[11] = test system: CCRF-CEM leukemia
[12] = test system: SNB-78 CNS
[13] = test system: SW-620 colon
[14] = test system: HOP-62 NSCLC
[15] = test system: A498 renal
[16] = test system: SNB-75 CNS
[17] = test system: HCC-2998 colon
[18] = test system: SN12C renal
[19] = test system: LOX IMVI melanoma
[20] = test system: RXF 393 renal
[21] = test system: SK-MEL-2 melanoma
[22] = test system: CAKI-1 renal
[23] = test system: UO-31 renal
[24] = test system: SK-OV-3 ovarian
[25] = test system: A549 NSCLC
[26] = test system: DMS 114 small cell lung
[27] = test system: OVCAR-5 ovarian
[28] = test system: KM20L2 colon
[29] = test system: IGROV1 ovarian
[30] = test system: XF 498 CNS
[31] = test system: KM12 colon
[32] = test system: UACC-62 melanoma
[33] = test system: HL-60(TB) leukemia
[34] = test system: COLO 205 colon
[35] = test system: HCT-116 colon
[36] = test system: SF-539 CNS
[37] = test system: NCI-H460 lung
[38] = test system: MOLT-4 leukemia
[39] = test system: NCI-H226 lung
[40] = test system: DMS 273 small cell lung
[41] = test system: RPMI-8226 leukemia
[42] = test system: MALME-3M melanoma
[43] = test system: SNB-19 CNS
[44] = test system: HCT-15 colon
[45] = test system: DLD-1 colon
[46] = test system: OVCAR-8 ovarian
[47] = test system: HT29 colon
[48] = test system: SF-295 CNS
[49] = test system: M14 melanoma
[50] = test system: NCI-H522 lung
[51] = test system: EKVX NSCLC
[52] = test system: SF-268 CNS
[53] = test system: ACHN renal
[54] = test system: TK-10 renal
[55] = test system: HOP-18 NSCLC
[56] = test system: OVCAR-4 ovarian
[57] = test system: HOP-92 NSCLC
[58] = test system: SR leukemia
[59] = test system: RXF-631 renal

CC1CCSC(N(C(=O)N(C)c2ccccc2)c2ccccc2)=N1 (centres undefined)
> 100 µM: TGI [1] | TGI [2] | TGI [3] | TGI [4] | TGI [5] | TGI [6] | TGI [7] | TGI [8] | TGI [9] | TGI [10] | TGI [11] | TGI [12] | TGI [13] | TGI [14] | TGI [15] | TGI [16] | TGI [17] | TGI [18] | TGI [19] | TGI [20] | TGI [21] | TGI [22] | TGI [23] | TGI [24] | TGI [25] | TGI [26] | TGI [27] | TGI [28] | TGI [29] | TGI [30] | TGI [31] | TGI [32] | TGI [33] | TGI [34] | TGI [35] | TGI [36] | TGI [37] | TGI [38] | TGI [39] | TGI [40] | TGI [41] | TGI [42] | TGI [43] | TGI [44] | TGI [45] | TGI [46] | TGI [47] | TGI [48] | TGI [49] | TGI [50] | TGI [51] | TGI [52] | TGI [53] | TGI [54]

O=c1ncccn1C1OC(CO)C(O)C1O (centres undefined)
> 100 µM: TGI [1] | TGI [2] | TGI [4] | TGI [6] | TGI [7] | TGI [9] | TGI [10] | TGI [11] | TGI [12] | TGI [13] | TGI [15] | TGI [16] | TGI [17] | TGI [18] | TGI [19] | TGI [20] | TGI [55] | TGI [21] | TGI [22] | TGI [23] | TGI [24] | TGI [25] | TGI [26] | TGI [27] | TGI [28] | TGI [29] | TGI [31] | TGI [32] | TGI [34] | TGI [35] | TGI [56] | TGI [37] | TGI [39] | TGI [40] | TGI [41] | TGI [42] | TGI [43] | TGI [44] | TGI [45] | TGI [46] | TGI [47] | TGI [49] | TGI [50] | TGI [51] | TGI [57] | TGI [52] | TGI [53] | TGI [54]

COc1ccc(CCn2c(=O)c3ccccc3n(C)c2=O)cc1
> 100 µM: TGI [1] | TGI [2] | TGI [3] | TGI [4] | TGI [5] | TGI [6] | TGI [7] | TGI [8] | TGI [9] | TGI [10] | TGI [11] | TGI [12] | TGI [13] | TGI [14] | TGI [15] | TGI [16] | TGI [17] | TGI [18] | TGI [22] | TGI [23] | TGI [24] | TGI [25] | TGI [26] | TGI [27] | TGI [28] | TGI [29] | TGI [30] | TGI [31] | TGI [32] | TGI [35] | TGI [56] | TGI [36] | TGI [37] | TGI [38] | TGI [41] | TGI [42] | TGI [43] | TGI [45] | TGI [46] | TGI [47] | TGI [48] | TGI [49] | TGI [51] | TGI [52] | TGI [53] | TGI [54]
50.1 µM: TGI [34]
85.6 µM: TGI [21]
95.2 µM: TGI [50]

COc1cccc(C=O)c1[O-].[O]=[U](=[O])([OH2+])[OH2+]
63.6 µM: TGI [24]
88.9 µM: TGI [55]
> 100 µM: TGI [1] | TGI [2] | TGI [3] | TGI [5] | TGI [6] | TGI [7] | TGI [9] | TGI [11] | TGI [12] | TGI [13] | TGI [14] | TGI [15] | TGI [17] | TGI [18] | TGI [19] | TGI [21] | TGI [22] | TGI [23] | TGI [25] | TGI [26] | TGI [27] | TGI [28] | TGI [29] | TGI [31] | TGI [34] | TGI [35] | TGI [56] | TGI [39] | TGI [40] | TGI [41] | TGI [42] | TGI [44] | TGI [45] | TGI [47] | TGI [49] | TGI [50] | TGI [51] | TGI [57] | TGI [52]
79.8 µM: TGI [53]
71.9 µM: TGI [4]
56.2 µM: TGI [46]
87.5 µM: TGI [58]
64.9 µM: TGI [36]
97.4 µM: TGI [54]
49.4 µM: TGI [8]
45.5 µM: TGI [43]
58.4 µM: TGI [37]
73.2 µM: TGI [38]
94.1 µM: TGI [20]
57.6 µM: TGI [32]
inactive: GI50 [22] > 100 µM
59.1 µM: TGI [10]
81.3 µM: TGI [16]
78.6 µM: TGI [48]

CC(C)OP(=O)(OC(C)C)/C(N)=N/Nc1ccc([N+](=O)[O-])cc1
> 100 µM: TGI [1] | TGI [2] | TGI [3] | TGI [4] | TGI [5] | TGI [6] | TGI [7] | TGI [8] | TGI [9] | TGI [10] | TGI [11] | TGI [12] | TGI [13] | TGI [14] | TGI [16] | TGI [17] | TGI [18] | TGI [19] | TGI [21] | TGI [22] | TGI [23] | TGI [25] | TGI [26] | TGI [27] | TGI [28] | TGI [30] | TGI [31] | TGI [32] | TGI [33] | TGI [34] | TGI [35] | TGI [56] | TGI [36] | TGI [58] | TGI [37] | TGI [38] | TGI [39] | TGI [40] | TGI [41] | TGI [42] | TGI [43] | TGI [44] | TGI [45] | TGI [46] | TGI [49] | TGI [50] | TGI [51] | TGI [57] | TGI [52] | TGI [53] | TGI [54]

C=CCC1=C(C)C[C@@H]2CCC(=O)C=C12
> 100 µM: TGI [1] | TGI [2] | TGI [3] | TGI [4] | TGI [5] | TGI [6] | TGI [7] | TGI [8] | TGI [9] | TGI [10] | TGI [11] | TGI [12] | TGI [13] | TGI [14] | TGI [15] | TGI [16] | TGI [18] | TGI [19] | TGI [20] | TGI [21] | TGI [22] | TGI [23] | TGI [24] | TGI [25] | TGI [26] | TGI [59] | TGI [27] | TGI [29] | TGI [31] | TGI [32] | TGI [33] | TGI [34] | TGI [35] | TGI [56] | TGI [36] | TGI [37] | TGI [38] | TGI [40] | TGI [41] | TGI [42] | TGI [43] | TGI [44] | TGI [46] | TGI [47] | TGI [48] | TGI [49] | TGI [50] | TGI [51] | TGI [57] | TGI [52] | TGI [53] | TGI [54]

N/N=C1\C(=O)N(c2ccc(Cl)cc2Cl)C(=O)C(=O)C1c1nc2ccccc2o1 (centres undefined)
> 100 µM: TGI [1] | TGI [2] | TGI [3] | TGI [4] | TGI [5] | TGI [6] | TGI [7] | TGI [8] | TGI [9] | TGI [10] | TGI [11] | TGI [12] | TGI [13] | TGI [14] | TGI [15] | TGI [16] | TGI [17] | TGI [18] | TGI [19] | TGI [55] | TGI [21] | TGI [22] | TGI [23] | TGI [24] | TGI [25] | TGI [26] | TGI [59] | TGI [27] | TGI [28] | TGI [29] | TGI [31] | TGI [32] | TGI [33] | TGI [34] | TGI [35] | TGI [56] | TGI [36] | TGI [37] | TGI [38] | TGI [39] | TGI [40] | TGI [41] | TGI [42] | TGI [43] | TGI [44] | TGI [45] | TGI [46] | TGI [47] | TGI [48] | TGI [49] | TGI [50] | TGI [51] | TGI [57] | TGI [52] | TGI [53] | TGI [54]

c1ccc2c(c1)oc1ccc3nsnc3c12
> 10 µM: TGI [19] | TGI [37] | TGI [54]
> 100 µM: TGI [1] | TGI [2] | TGI [3] | TGI [4] | TGI [5] | TGI [6] | TGI [7] | TGI [8] | TGI [9] | TGI [11] | TGI [13] | TGI [15] | TGI [16] | TGI [17] | TGI [20] | TGI [55] | TGI [21] | TGI [22] | TGI [23] | TGI [24] | TGI [25] | TGI [26] | TGI [59] | TGI [27] | TGI [28] | TGI [29] | TGI [31] | TGI [32] | TGI [33] | TGI [34] | TGI [35] | TGI [56] | TGI [36] | TGI [58] | TGI [38] | TGI [39] | TGI [40] | TGI [42] | TGI [43] | TGI [44] | TGI [45] | TGI [47] | TGI [48] | TGI [49] | TGI [50] | TGI [51] | TGI [57] | TGI [52] | TGI [53]
